# From PMC11640836, “Aminomethylmorpholino Nucleosides as Novel Inhibitors of PARP1 and PARP2: Experimental and Molecular Modeling Analyses of Their Selectivity and Mechanism of Action” (International Journal of Molecular Sciences, 2024)
# Read-outs that look alike come from different tables or passages of the source.
# Columns and labels:
# [1] = target: T1, PARP1 (Homo sapiens, UniProt P09874); assay: PARP1 autopoly(ADP-ribosyl)ation (autoPARylation) enzyme assay with [32P]NAD+; type: biochemical; conditions: for IC50: 0.3 mM [32P]NAD+, means ±SDs of three independent experiments, read-out: IC50, PARP1 activity in the autoPARylation reaction
# T1 construct: made in house; host or cells: insect cells
# T1 sequence (P09874 whole entry): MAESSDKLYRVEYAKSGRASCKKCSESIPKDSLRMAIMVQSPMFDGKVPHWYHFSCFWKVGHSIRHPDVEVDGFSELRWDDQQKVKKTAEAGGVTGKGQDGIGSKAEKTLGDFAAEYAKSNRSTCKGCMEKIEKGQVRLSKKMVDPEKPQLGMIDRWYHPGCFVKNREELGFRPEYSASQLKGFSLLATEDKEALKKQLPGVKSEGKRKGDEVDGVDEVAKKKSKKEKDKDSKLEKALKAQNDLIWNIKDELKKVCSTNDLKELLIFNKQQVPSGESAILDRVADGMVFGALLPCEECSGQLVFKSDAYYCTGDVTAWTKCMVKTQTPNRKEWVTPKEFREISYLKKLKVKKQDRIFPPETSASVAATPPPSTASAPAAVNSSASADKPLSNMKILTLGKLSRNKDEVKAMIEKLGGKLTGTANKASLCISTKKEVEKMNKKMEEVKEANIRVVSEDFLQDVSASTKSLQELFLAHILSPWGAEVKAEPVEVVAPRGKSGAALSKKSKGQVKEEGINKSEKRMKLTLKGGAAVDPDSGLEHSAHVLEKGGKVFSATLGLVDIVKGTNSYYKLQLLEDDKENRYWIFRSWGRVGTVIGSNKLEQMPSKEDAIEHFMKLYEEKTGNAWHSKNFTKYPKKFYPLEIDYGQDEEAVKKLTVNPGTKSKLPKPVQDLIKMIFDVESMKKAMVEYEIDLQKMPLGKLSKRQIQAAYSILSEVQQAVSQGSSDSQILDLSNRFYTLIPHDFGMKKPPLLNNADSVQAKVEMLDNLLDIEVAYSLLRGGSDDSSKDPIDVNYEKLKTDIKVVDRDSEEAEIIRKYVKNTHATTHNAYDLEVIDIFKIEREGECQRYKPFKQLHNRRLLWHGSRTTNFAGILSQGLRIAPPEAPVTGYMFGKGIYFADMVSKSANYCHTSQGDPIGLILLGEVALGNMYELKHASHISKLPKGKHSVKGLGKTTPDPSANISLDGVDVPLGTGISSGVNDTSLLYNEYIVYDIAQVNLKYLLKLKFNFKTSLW
# Description: (§1) Human recombinant poly(ADP-ribose) polymerase 1 (PARP1) and murine poly(ADP-ribose) polymerase 2 (PARP2) were expressed in insect cells and purified as previously described. Radioactively labeled [^32P]NAD^+ was synthesized from [α-^32P]ATP, according to the previously developed method. The reaction of autopoly(ADP-ribosyl)ation was performed as follows. For PARP1, the reaction mixture contained 50 mM of Tris-HCl, a pH of 8.0, 10 mM of MgCl2, 150 mM of NaCl, 7 mM of β-mercaptoethanol, 2 A260/mL of activated DNA, 0.3 mM of [^32P]NAD^+, and 1 of the tested compounds. The reaction was initiated by adding PARP1 up to 200 nM, and the reaction mixtures were incubated at 37 °C for 2 min. For PARP2, the reaction mixture contained 50 mM of Tris-HCl, a pH of 8.0, 3 mM of spermine, 150 mM of NaCl, 7 mM of β-mercaptoethanol, 2 A260/mL of activated DNA, 0.6 mM of [^32P]NAD^+, and 1 of the tested compounds. The reaction was initiated by adding PARP2 up to 800 nM, and the reaction mixtures were incubated at 37 °C for 5 min. The tested compounds were added at six fixed concentrations, specified for each of them. The reaction was stopped by dropping 10 µL aliquots onto Whatman 1 filter papers soaked in 5% trichloroacetic acid (TCA). The filters were washed 4 times with 150 mL of 5% TCA and dried in the air after the removal of TCA with 90% ethanol. The introduction of radioactivity into the reaction product was quantified using a Typhoon FLA 9500 imager (GE Healthcare, Chicago, IL, USA). The half-maximal inhibitory concentration (IC50) values were determined using a six-point concentration response curve in three independent experiments.
# [2] = target: T2, PARP2 (Mus musculus, UniProt O88554); assay: PARP2 autopoly(ADP-ribosyl)ation (autoPARylation) enzyme assay with [32P]NAD+; type: biochemical, murine; conditions: for remaining activity at 1000 µM: 5 min, 1 mM compound, autoPARylation reaction, read-out: Residual catalytic activity of PARP2 in the presence of a 1 mM compound; for IC50: 0.6 mM [32P]NAD+, means ±SDs of three independent experiments, read-out: IC50, PARP2 activity in the autoPARylation reaction
# T2 construct: made in house; host or cells: insect cells
# T2 sequence (O88554 whole entry): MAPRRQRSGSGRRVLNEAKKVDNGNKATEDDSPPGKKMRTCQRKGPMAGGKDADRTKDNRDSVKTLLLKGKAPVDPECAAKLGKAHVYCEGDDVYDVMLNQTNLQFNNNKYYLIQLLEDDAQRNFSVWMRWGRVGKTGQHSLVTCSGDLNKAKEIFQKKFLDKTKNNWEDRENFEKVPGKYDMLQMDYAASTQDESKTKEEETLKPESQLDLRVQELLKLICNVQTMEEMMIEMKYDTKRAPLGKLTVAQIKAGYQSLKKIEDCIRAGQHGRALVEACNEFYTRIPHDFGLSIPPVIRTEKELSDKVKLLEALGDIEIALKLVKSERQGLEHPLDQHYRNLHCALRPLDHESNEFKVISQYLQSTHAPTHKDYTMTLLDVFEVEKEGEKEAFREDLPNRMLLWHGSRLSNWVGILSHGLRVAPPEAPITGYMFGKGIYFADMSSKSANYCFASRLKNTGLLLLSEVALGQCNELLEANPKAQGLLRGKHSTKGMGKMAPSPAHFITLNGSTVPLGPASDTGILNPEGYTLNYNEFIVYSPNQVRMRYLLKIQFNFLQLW
# Description: as §1
# [3] = system: PARP1; conditions: cited from earlier work
# [4] = system: PARP2; conditions: cited from earlier work
# [5] = system: HeLa cell line (cervical cancer); assay: Cell culture cytotoxicity assay (EZ4U/MTT), compounds alone and combined with hydrogen peroxide; conditions: for Effect (H2O2 + PARP inhibitor combo): Hela
# [6] = target: T1, PARP1; assay: Steady-state kinetic analysis of the PARP1 enzymatic reaction; type: biochemical; conditions: for Type of inhibition: Vmax decreased, KM increased
# Description: The four efficient inhibitors of PARP1 (compounds 8, 12, 13, and 14) were further examined by detailed kinetic experiments to determine the type of inhibition and the inhibition constants. […] The kinetics experiments of the PARylation reaction were performed at varied concentrations of the NAD^+ substrate and three–four different fixed concentrations of the inhibitor. The kinetic parameters of the reaction (Vmax and KM) were calculated by fitting the Michaelis–Menten equation to the kinetic data. The type of inhibition was determined by analyzing the dependences of Vmax and KM on the concentration of the inhibitor in linearizing coordinates (Figure S3). All the compounds had decreased Vmax and increased KM values as the inhibitor concentration increased (panels A−E), indicating a mixed type of inhibition, which was further evidenced by the double reciprocal plots of kinetic data (panel F). From these experiments, the inhibition constants reflecting the affinity of inhibitors to the NAD^+ binding pocket of free enzymes were determined (Table 2).
# To determine the apparent maximum rate of enzymatic reaction (Vmax), Michaelis constant (KM), and possible inhibition mechanism, steady-state kinetic experiments were performed at […] fixed concentrations of the substrate, in the absence and presence of different fixed concentrations of the inhibitor. The standard reaction mixtures (10 μL) contained 100 μM, 300 μM, 500 μM, 1 mM, or 2 mM NAD^+; a tested PARP1/PARP2 inhibitor specified for each compound (Figure S3); the recombinant human enzyme PARP1 (200 nM) or murine PARP2 (800 nM); and reaction buffer components (specified in the previous subsection). The reaction was performed as described in the previous subsection. The raw data (kinetic curves) were obtained in three independent experiments and statistically processed with OriginPro 8.6.0 software. […]
# F) Graphical representation in double reciprocal plots. The inhibitor concentrations (µM) are indicated right to each panel.
# Figure S3. Graphical representation of inhibition type determination for PARP1 and PARP2 with selected compounds.
# The Ki and Ki(2) values presented in Table 2 in the main text and Table S1 were calculated using the equations:
# Ki = Ci⁄ Ki (2) = CiV Vmax ∗ൗ−1
# ቂ(Vmax Km )൘ቃ(Vmax ∗ Km ∗)⁄ −1 where Vmax (Vmax*) – maximal reaction velocity in th e absence (presence) of inhibitor; Km (Km*) – Michaelis constant in the absence (presence) of inhibitor; Ci – the inhibitor concentration.
# (also on this page, place not known: Ci )⁄ (Vmax ∗ )⁄൘ቃ − Ki(2) Ci V ∗ൗ− 1 the Vmax KM 3000 0 1 0 250 [ 32 P]ADP-ribose, counts x 10 -3 NAD + ,)
# (1 picture or pasted object on this page, not shown here)
# [7] = target: T3, PARP2 (supplemented with HPF1 or not) (Mus musculus, UniProt O88554); assay: PARP2 inhibition in the absence and presence of HPF1 (automodification, SDS-PAGE); type: biochemical, murine; conditions: 500 nM PARP2, 1 µM HPF1
# T3 construct: made in house; host or cells: insect cells (PARP2)
# T3 sequence (O88554 whole entry): as above
# Description: PARP1/PARP2 autopoly(ADP-ribosyl)ation was performed in a standard 20 μL reaction mixture containing 50 mM of Tris-HCl, a pH of 8.0, 100 mM of NaCl, 10 mM of MgCl2, 1 mM of DTT, 10 µM of [^32P]NAD^+, 1 µM of gap-DNA (a 32-mer duplex with a medially located 1-nucleotide gap), 500 nM of PARP1/PARP2 (supplemented with 1 µM of HPF1 or not), and an inhibitor of interest at concentrations specified in Figure 4 and Figure S7. The reaction was initiated by adding a mixture of [^32P]NAD^+ and DNA to a protein-inhibitor mixture pre-assembled on ice. After incubating the mixtures at 37 °C for the indicated time periods, the reactions were terminated by the addition of an SDS-PAGE sample buffer and heating for 2 min at 90 °C. The reaction products were analyzed using 10% SDS-PAGE with the subsequent phosphor imaging of a Coomassie brilliant blue stained gel. Protein bands labeled with [^32P]ADP-ribose were quantified using Quantity One 4.6.7 Basic software. The residual activity (%) was determined as the level of PARP automodification in the presence of an inhibitor normalized to the respective level in the control sample containing no inhibitor.
# [8] = system: PARP1; assay: fluorescence anisotropy; conditions: 400 nM olaparib; 50 mM NaCl, 50 mM Tris-HCl pH 8.0, 4 mM DTT; 25 nM FAM-DNA, 20-200 nM PARP1 or 20-800 nM PARP2; mixed on ice, 10 min at room temperature
# [9] = system: PARP2; assay: fluorescence anisotropy; conditions: 800 nM olaparib; 50 mM NaCl, 50 mM Tris-HCl pH 8.0, 4 mM DTT; 25 nM FAM-DNA, 20-200 nM PARP1 or 20-800 nM PARP2; mixed on ice, 10 min at room temperature
# [10] = mixed-type inhibition, read-out: Ki (affinity for the free enzyme)
# [11] = read-out: Ki(2) (affinity for the enzyme complex with NAD+ substrate)
molecule,measurement,setting,value
NC[C@@H]1CN(CC(=O)O)C[C@H](n2cnc3c(N)ncnc32)O1 [Compound 1],Residual catalytic activity of PARP1 in the presence of a 1 mM compound,[1]; autoPARylation reaction,>30%
same,remaining activity at 1000 µM,[2],> 30%
Cc1cn([C@H]2CN(CC(=O)O)C[C@@H](CN)O2)c(=O)[nH]c1=O [Compound 2],IC50,[1],60 ± 14 µM
same,IC50,[2],100 ± 12 µM
NC[C@@H]1CN(CC(=O)O)C[C@H](n2cnc3c(=O)[nH]c(N)nc32)O1 [Compound 3],Residual catalytic activity of PARP1 in the presence of a 1 mM compound,[1]; autoPARylation reaction,>30%
same,remaining activity at 1000 µM,[2],> 30%
NC[C@@H]1CN(CC(=O)O)C[C@H](n2ccc(N)nc2=O)O1 [Compound 4],Residual catalytic activity of PARP1 in the presence of a 1 mM compound,[1]; autoPARylation reaction,>30%
same,remaining activity at 1000 µM,[2],> 30%
O=c1[nH]c(=O)n([C@@H]2O[C@H](CO)[C@@H](O)[C@H]2O)cc1I [Compound 5-I-Urd],IC50,[3],49 µM
same,IC50,[4],27 µM
NC[C@@H]1CN(CC(=O)O)C[C@H](n2ccc(=O)[nH]c2=O)O1 [Compound 5],Residual catalytic activity of PARP1 in the presence of a 1 mM compound,[1]; autoPARylation reaction,>30%
same,remaining activity at 1000 µM,[2],> 30%
"NC[C@@H]1CN(CC(=O)O)C[C@H](n2cc(I)c(=O)[nH]c2=O)O1 [Compound 6, 2′-aminomethylmorpholino glycine 5-I-uracyl nucleoside]",IC50,[1],70 ± 12 µM
same,IC50,[2],142 ± 6 µM
NC[C@@H]1CNC[C@H](n2cnc3c(N)ncnc32)O1 [Compound 7],Residual catalytic activity of PARP1 in the presence of a 1 mM compound,[1]; autoPARylation reaction,>30%
same,remaining activity at 1000 µM,[2],> 30%
NC[C@@H]1CNC[C@H](n2cnc3c(=O)[nH]c(N)nc32)O1 [Compound 9],Residual catalytic activity of PARP1 in the presence of a 1 mM compound,[1]; autoPARylation reaction,>30%
same,remaining activity at 1000 µM,[2],> 30%
NC[C@@H]1CNC[C@H](n2ccc(N)nc2=O)O1 [Compound 10],Residual catalytic activity of PARP1 in the presence of a 1 mM compound,[1]; autoPARylation reaction,>30%
same,remaining activity at 1000 µM,[2],> 30%
same,Effect (H2O2 + PARP inhibitor combo),[5]; H2O2 30 μM + inhibitor 100 μM,0.29
same,Effect (H2O2 + PARP inhibitor combo),[5]; H2O2 30 μM + inhibitor 800 μM,0.23
same,Effect (H2O2 + PARP inhibitor combo),[5]; H2O2 50 μM + inhibitor 100 μM,0.32
same,Effect (H2O2 + PARP inhibitor combo),[5]; H2O2 50 μM + inhibitor 800 μM,0.26
same,Effect (H2O2 + PARP inhibitor combo),[5]; H2O2 90 μM + inhibitor 100 μM,0.45
same,Effect (H2O2 + PARP inhibitor combo),[5]; H2O2 90 μM + inhibitor 800 μM,0.51
same,Effect (H2O2 + PARP inhibitor combo),[5]; H2O2 150 μM + inhibitor 100 μM,0.66
same,Effect (H2O2 + PARP inhibitor combo),[5]; H2O2 150 μM + inhibitor 800 μM,0.64
same,Effect (H2O2 + PARP inhibitor combo),[5]; H2O2 250 μM + inhibitor 100 μM,0.78
same,Effect (H2O2 + PARP inhibitor combo),[5]; H2O2 250 μM + inhibitor 800 μM,0.87
NC[C@@H]1CNC[C@H](n2ccc(=O)[nH]c2=O)O1 [Compound 11],IC50,[1],420 ± 66 µM
same,remaining activity at 1000 µM,[2],> 30%
"NC[C@@H]1CNC[C@H](n2cc(Cl)c(=O)[nH]c2=O)O1 [Compound 12, aminomethylmorpholino 5-Cl-uracil nucleoside]",IC50,[1],45 ± 5 µM
same,Selectivity for PARP1 over PARP2 (IC50 comparison),[1]; autoPARylation reaction,highly selective PARP1 inhibitor
same,remaining activity at 1000 µM,[2],> 30%
same,Type of inhibition,[6],mixed-type inhibition
same,Ki,[6]; [10],79 ± 6 µM
same,Ki,[6]; [11],300 ± 60 µM
NC[C@@H]1CNC[C@H](n2cc(Br)c(=O)[nH]c2=O)O1 [Compound 13],IC50,[1],30 ± 3 µM
same,IC50,[2],250 ± 37 µM
same,Type of inhibition,[6],mixed-type inhibition
same,Ki,[6]; [10],25 ± 4 µM
same,Ki,[6]; [11],130 ± 30 µM
same,Impact of HPF1 on the inhibition potency against PARP2,[7],no impact of HPF1
"O=C(c1cc(Cc2n[nH]c(=O)c3ccccc23)ccc1F)N1CCN(C(=O)C2CC2)CC1 [olaparib, reference compound]",IC50,[4],[…]
same,Effect (H2O2 + PARP inhibitor combo),[5]; H2O2 30 μM + inhibitor 30 μM,0.32
same,Effect (H2O2 + PARP inhibitor combo),[5]; H2O2 30 μM + inhibitor 50 μM,0.42
same,Effect (H2O2 + PARP inhibitor combo),[5]; H2O2 50 μM + inhibitor 30 μM,0.51
same,Effect (H2O2 + PARP inhibitor combo),[5]; H2O2 50 μM + inhibitor 50 μM,0.5
same,Effect (H2O2 + PARP inhibitor combo),[5]; H2O2 90 μM + inhibitor 30 μM,0.6
same,Effect (H2O2 + PARP inhibitor combo),[5]; H2O2 90 μM + inhibitor 50 μM,0.7
same,Effect (H2O2 + PARP inhibitor combo),[5]; H2O2 150 μM + inhibitor 30 μM,0.85
same,Effect (H2O2 + PARP inhibitor combo),[5]; H2O2 150 μM + inhibitor 50 μM,0.9
same,Effect (H2O2 + PARP inhibitor combo),[5]; H2O2 250 μM + inhibitor 30 μM,0.96
same,Effect (H2O2 + PARP inhibitor combo),[5]; H2O2 250 μM + inhibitor 50 μM,0.98
same,Effect on the cytotoxicity of hydrogen peroxide,"[5]; Hela cells, MTT test, H2O2 30 to 250 μM",enhanced the cytotoxic effects of hydrogen peroxide
Cc1cn([C@@H]2O[C@H](CO)[C@@H](O)[C@H]2O)c(=O)[nH]c1=O [rThd],IC50,[3],277 µM
same,IC50,[4],374 µM
"FAM gap-DNA (32-mer duplex, 1-nt gap)",binding signal (fold increase of EC50 vs no inhibitor),[8],1.8
same,binding signal (fold increase of EC50 vs no inhibitor),[9],1.6
